Calls of active or inactive are those of the source.
Legend:
[1] = molecular target: G-protein coupled receptor 183 (Homo sapiens, UniProt P32249); experiment: SAR confirmation of small molecule antagonists of the EBI2 receptor via a luminescent beta-arrestin assa.; type: functional
Leucine aminopeptidase = molecular target: T1, Leucine aminopeptidase (Plasmodium falciparum 3D7, UniProt Q8IL11); experiment: P. falciparum M17LAP inhibitors, primary screen, biochemical, fluorogenic H-Leu-NHMec substrate, 1536-well (AID 1619); type: functional
T1 sequence (Q8IL11 whole entry): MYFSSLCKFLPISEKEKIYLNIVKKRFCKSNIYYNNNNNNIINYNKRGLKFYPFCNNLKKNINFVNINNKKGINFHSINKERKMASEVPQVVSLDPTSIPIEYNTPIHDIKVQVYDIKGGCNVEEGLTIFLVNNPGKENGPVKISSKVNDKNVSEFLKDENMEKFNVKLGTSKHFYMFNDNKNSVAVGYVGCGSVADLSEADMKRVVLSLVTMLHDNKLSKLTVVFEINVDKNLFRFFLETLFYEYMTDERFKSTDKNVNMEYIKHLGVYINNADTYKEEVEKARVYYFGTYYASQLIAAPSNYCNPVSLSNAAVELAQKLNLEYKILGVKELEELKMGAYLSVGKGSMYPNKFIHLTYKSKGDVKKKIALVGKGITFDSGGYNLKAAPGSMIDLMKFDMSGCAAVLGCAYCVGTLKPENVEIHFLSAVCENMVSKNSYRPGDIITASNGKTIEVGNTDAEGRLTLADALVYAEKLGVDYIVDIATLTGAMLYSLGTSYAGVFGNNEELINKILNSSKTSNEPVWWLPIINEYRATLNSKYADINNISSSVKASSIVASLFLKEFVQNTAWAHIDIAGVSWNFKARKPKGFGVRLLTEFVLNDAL

[2] = IC50 of Artemis nuclease activity blockers – biochemical, fluorescence intensity, dose response (AID 720701); type: functional;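 note: Artemis endonuclease enzyme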
Aminopeptidase N = molecular target: T2, Aminopeptidase N (Plasmodium falciparum FcB1/Columbia, UniProt O96935); experiment: malaria alanyl aminopeptidase activity blockers – biochemical, fluorogenic H-Leu-NHMec substrate, 1536-well (AID 1445); parameters: species or system Plasmodium falciparum 3D7, 3D7
T2 sequence (O96935 whole entry): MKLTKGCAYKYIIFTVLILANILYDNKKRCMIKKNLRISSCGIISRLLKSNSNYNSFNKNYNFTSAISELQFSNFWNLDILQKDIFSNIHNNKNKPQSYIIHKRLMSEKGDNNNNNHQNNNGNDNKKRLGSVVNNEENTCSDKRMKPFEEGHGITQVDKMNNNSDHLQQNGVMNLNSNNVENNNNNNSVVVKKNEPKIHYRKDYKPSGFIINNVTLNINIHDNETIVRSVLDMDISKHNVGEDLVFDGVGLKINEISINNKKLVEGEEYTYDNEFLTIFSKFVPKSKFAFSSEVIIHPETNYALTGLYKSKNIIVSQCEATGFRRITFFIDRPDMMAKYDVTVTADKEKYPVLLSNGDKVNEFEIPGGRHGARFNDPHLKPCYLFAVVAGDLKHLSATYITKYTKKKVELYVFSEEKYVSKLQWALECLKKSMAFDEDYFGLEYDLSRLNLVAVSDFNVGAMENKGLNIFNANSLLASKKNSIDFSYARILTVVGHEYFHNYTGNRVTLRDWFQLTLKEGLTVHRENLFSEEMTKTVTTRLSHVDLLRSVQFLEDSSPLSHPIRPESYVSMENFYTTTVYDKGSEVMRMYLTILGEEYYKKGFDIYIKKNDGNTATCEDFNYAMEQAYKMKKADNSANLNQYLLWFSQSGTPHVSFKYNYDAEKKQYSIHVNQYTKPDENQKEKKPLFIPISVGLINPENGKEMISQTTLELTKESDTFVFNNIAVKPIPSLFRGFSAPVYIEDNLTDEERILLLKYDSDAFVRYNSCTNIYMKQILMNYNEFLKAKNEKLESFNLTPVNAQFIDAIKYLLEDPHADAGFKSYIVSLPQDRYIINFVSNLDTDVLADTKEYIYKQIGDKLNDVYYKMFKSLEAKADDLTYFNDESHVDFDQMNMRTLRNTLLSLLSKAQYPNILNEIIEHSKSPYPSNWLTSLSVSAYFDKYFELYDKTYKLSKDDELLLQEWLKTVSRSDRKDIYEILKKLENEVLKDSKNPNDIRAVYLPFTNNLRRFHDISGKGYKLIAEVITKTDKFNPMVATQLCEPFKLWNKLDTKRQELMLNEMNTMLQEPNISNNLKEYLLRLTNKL

[3] = molecular target: T3, Zinc finger protein mex-5 (Caenorhabditis elegans, UniProt Q9XUB2); experiment: potency of MEX-5 RNA-binding blockers – biochemical, C. elegans, fluorescence polarization, dose response (AID 1960)
T3 sequence (Q9XUB2 whole entry): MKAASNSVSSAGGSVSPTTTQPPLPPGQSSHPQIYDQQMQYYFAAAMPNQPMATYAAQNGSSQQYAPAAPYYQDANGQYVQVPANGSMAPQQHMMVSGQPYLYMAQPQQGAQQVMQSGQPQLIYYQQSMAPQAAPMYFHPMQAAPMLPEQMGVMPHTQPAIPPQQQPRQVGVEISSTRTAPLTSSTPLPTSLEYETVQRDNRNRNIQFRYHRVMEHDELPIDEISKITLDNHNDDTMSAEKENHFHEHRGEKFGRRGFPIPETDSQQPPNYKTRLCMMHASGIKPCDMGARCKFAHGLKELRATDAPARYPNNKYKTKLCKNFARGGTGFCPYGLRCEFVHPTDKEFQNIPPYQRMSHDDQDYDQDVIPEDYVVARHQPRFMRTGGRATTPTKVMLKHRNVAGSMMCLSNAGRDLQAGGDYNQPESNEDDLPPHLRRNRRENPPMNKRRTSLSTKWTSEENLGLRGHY

[4] = molecular target: DNA (cytosine-5)-methyltransferase 1 (Homo sapiens, UniProt P26358); experiment: inhibition of DNA methylation by DNMT1 – biochemical, fluorescent molecular beacon, confirmation (AID 602386); type: functional
[5] = molecular target: RNA-editing ligase 1, mitochondrial (Trypanosoma brucei brucei, UniProt P86926); experiment: inhibition of trypanosome RNA editing ligase – biochemical, fluorescence, Trypanosoma brucei, dose response (AID 1117295); type: functional
[6] = molecular target: T4, RNA-binding protein pos-1 (Caenorhabditis elegans, UniProt G5EF15); experiment: disruptors of C. elegans POS-1 RNA interaction – biochemical, fluorescence polarization, dose response (AID 1964);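 note: purified POS-1 fused to maltose binding protein made in E. coli; potency of compounds blocking POS-1 binding to fluorescent RNA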
T4 sequence (G5EF15 whole entry): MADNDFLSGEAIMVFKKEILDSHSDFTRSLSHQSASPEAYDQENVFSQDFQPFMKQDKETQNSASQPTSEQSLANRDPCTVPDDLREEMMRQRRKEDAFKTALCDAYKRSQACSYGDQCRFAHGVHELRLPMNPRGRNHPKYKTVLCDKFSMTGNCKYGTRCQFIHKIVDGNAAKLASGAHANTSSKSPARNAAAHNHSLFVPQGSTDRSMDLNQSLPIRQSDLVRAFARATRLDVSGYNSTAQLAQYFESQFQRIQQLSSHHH

Caspase-9 = Caspase-9 (Homo sapiens, UniProt P55211); experiment: inhibitors of purified CASP9 protease – biochemical, fluorescence, plate reader, cherry-picked samples, selectivity assay for caspase-6 inhibitor project, dose response (AID 743293)
Caspase-6 = Caspase-6 (Homo sapiens, UniProt P55212); experiment: inhibition of CASP6 peptide cleavage – biochemical, VEID-R110 fluorescence, cherry-pick, dose response (AID 720632)
[7] = molecular target: 1-phosphatidylinositol 4,5-bisphosphate phosphodiesterase gamma-1 (Homo sapiens, UniProt P19174); experiment: Counterscreen for inhibitors of phospholipase C isozymes (PLC-B3): Fluorescence-based biochemical high throughput dose response assay to identify inhibitors of phospholipase C isozymes (PLC-gamma1).
[8] = molecular target: 1-phosphatidylinositol 4,5-bisphosphate phosphodiesterase beta-3 (Homo sapiens, UniProt Q01970); experiment: Fluorescence-based biochemical high throughput dose response assay to identify inhibitors of phospholipase C isozymes (PLC-B3).
[9] = molecular target: T5, Histone-lysine N-methyltransferase NSD2 (Homo sapiens, UniProt O96028); type: biochemical
T5 sequence (O96028 whole entry): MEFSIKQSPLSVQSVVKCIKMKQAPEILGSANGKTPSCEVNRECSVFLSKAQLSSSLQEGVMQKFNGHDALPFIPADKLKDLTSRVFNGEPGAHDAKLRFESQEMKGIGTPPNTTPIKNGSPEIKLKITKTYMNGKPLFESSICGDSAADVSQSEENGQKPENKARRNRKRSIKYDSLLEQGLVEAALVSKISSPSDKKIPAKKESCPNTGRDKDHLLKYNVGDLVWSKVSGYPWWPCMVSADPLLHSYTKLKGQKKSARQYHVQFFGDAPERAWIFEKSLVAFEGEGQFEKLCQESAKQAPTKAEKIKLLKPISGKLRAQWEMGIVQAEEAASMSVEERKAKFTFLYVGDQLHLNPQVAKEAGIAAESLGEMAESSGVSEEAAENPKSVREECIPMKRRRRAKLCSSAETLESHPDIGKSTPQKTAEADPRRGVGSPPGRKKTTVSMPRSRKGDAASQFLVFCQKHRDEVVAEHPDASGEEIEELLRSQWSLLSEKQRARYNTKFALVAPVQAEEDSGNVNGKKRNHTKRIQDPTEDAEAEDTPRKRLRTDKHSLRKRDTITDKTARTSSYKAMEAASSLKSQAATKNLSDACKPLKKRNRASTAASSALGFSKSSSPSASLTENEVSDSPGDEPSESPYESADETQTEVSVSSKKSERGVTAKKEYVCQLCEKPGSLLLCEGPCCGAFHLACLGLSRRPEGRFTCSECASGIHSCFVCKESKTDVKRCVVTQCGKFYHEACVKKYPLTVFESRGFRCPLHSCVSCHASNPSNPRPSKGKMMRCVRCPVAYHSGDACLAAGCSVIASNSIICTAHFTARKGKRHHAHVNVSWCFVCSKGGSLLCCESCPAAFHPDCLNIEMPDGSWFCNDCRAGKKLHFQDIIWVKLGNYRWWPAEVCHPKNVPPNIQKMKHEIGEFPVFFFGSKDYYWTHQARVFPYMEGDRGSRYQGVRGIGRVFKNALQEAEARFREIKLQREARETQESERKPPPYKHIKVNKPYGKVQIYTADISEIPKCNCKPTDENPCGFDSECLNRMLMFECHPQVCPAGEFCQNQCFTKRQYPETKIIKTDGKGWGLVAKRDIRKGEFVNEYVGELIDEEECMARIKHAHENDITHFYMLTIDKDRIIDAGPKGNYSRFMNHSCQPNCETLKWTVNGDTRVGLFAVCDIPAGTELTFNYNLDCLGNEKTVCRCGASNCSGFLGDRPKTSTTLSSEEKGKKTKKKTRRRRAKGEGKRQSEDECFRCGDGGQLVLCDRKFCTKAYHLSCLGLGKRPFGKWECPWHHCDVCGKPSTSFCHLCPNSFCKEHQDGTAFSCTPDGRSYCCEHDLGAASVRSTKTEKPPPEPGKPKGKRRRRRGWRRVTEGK

Sequence of Caspase-9 (P55211 1-315 limits assumed): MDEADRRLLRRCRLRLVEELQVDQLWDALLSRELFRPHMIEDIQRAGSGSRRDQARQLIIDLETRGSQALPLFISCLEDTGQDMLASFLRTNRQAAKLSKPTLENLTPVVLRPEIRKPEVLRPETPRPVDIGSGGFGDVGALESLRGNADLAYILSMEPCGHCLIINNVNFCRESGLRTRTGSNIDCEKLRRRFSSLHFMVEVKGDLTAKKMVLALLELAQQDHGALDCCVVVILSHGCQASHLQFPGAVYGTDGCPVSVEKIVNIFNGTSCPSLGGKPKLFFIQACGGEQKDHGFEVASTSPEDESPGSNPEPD
Sequence of Caspase-9 (P55211 331-416 limits assumed): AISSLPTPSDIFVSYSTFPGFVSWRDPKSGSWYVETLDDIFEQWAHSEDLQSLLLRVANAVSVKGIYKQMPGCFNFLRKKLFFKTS
Sequence of DNA (cytosine-5)-methyltransferase 1 (P26358 whole entry): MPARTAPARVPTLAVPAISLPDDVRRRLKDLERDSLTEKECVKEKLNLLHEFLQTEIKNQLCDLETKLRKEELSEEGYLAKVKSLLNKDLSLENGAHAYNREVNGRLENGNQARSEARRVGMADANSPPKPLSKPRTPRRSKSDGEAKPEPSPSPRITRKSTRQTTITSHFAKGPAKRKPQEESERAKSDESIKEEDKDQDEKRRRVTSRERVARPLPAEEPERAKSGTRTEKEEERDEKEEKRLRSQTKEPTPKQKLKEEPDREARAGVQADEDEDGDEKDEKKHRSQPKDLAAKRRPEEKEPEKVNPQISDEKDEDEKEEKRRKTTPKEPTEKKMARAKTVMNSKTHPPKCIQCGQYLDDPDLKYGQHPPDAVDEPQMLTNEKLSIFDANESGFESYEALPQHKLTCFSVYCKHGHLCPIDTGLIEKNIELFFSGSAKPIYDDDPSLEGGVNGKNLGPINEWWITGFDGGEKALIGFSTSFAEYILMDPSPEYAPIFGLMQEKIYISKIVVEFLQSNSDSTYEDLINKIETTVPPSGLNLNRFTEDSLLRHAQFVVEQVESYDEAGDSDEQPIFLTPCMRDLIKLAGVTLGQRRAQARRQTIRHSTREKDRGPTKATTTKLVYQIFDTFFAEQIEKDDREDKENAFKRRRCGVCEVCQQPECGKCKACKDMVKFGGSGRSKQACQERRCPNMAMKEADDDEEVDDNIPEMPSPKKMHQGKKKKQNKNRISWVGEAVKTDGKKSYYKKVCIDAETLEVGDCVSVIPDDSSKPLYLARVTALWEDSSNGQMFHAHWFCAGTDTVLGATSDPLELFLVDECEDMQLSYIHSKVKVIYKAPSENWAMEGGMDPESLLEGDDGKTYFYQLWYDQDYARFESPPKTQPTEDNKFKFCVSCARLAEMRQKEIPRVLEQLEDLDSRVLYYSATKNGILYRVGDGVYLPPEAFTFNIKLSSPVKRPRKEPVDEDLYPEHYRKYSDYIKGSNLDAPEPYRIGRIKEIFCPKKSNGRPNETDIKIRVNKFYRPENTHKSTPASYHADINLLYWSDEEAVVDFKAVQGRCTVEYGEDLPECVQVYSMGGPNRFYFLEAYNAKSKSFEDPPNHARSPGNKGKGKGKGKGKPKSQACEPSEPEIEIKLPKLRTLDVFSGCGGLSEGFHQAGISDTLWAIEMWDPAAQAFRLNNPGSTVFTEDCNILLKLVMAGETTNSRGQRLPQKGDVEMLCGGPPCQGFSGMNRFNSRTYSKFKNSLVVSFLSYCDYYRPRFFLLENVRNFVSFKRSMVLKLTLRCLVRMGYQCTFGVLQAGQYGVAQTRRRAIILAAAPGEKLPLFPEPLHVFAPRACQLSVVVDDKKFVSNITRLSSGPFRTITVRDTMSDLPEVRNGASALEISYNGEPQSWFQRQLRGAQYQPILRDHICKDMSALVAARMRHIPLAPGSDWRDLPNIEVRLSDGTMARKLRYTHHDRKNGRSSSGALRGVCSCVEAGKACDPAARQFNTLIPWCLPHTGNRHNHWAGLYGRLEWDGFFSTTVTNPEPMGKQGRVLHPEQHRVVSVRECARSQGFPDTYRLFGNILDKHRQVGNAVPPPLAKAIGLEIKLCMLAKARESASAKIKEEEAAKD
Sequence of Caspase-6 (P55212 24-179 limits assumed): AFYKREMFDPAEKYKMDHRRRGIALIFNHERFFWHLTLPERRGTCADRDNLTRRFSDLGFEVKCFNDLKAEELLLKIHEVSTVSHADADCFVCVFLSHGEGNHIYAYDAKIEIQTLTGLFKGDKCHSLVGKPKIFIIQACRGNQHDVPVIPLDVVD
Sequence of Caspase-6 (P55212 194-293 limits assumed): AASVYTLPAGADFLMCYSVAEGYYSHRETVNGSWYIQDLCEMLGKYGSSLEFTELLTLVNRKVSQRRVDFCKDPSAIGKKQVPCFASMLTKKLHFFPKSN
Sequence of 1-phosphatidylinositol 4,5-bisphosphate phosphodiesterase beta-3 (Q01970 whole entry): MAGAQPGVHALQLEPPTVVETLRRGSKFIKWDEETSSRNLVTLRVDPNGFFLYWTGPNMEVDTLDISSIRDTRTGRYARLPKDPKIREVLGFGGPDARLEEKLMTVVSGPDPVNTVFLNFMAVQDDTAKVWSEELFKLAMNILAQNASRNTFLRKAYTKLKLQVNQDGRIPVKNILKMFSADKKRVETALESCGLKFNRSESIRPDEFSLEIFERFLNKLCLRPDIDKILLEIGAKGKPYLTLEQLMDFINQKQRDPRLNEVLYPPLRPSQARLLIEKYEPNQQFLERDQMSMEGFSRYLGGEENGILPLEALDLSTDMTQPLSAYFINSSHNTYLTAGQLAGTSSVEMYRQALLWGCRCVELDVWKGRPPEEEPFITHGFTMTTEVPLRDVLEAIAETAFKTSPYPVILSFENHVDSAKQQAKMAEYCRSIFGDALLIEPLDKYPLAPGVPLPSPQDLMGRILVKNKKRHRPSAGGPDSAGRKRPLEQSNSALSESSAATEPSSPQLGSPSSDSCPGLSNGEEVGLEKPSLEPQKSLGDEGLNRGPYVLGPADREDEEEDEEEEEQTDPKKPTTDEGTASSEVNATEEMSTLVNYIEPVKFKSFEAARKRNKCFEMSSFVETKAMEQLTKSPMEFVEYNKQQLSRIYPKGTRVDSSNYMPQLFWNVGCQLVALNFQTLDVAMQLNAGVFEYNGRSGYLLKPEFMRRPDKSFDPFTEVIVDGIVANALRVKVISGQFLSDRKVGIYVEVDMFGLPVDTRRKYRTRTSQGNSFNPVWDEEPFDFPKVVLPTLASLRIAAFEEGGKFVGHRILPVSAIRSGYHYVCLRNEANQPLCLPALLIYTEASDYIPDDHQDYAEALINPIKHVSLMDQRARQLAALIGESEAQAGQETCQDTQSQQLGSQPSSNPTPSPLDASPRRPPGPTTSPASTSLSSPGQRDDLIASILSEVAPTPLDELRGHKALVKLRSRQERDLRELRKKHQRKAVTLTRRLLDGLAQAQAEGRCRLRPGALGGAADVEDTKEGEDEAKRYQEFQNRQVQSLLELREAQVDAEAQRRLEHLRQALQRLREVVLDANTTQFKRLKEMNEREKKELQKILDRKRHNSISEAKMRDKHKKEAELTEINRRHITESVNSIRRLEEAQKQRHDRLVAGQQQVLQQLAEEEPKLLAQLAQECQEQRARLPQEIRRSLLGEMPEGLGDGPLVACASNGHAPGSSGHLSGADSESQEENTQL
Sequence of G-protein coupled receptor 183 (P32249 whole entry): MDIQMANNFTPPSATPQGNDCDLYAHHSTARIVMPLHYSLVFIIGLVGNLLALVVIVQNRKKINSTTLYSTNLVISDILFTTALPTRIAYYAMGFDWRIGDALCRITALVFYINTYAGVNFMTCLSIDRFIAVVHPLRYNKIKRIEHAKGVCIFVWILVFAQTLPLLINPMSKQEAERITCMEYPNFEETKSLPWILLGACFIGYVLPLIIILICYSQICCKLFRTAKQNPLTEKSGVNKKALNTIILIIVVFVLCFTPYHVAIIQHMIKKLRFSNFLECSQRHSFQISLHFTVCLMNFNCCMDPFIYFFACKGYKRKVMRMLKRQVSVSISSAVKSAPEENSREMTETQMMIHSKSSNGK
Sequence of RNA-editing ligase 1, mitochondrial (P86926 whole entry, the tested form may be a part): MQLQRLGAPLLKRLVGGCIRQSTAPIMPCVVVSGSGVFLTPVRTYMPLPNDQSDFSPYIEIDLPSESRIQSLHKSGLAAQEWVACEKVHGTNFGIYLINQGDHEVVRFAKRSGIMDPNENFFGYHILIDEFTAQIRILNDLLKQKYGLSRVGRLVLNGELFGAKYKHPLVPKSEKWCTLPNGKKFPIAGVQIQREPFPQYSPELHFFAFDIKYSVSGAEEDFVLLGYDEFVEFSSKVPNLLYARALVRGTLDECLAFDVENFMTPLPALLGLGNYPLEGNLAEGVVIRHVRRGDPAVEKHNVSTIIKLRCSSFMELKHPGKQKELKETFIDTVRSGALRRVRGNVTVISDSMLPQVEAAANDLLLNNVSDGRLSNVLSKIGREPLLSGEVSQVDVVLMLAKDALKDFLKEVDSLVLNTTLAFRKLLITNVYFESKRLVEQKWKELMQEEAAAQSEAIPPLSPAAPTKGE

O=C(/C=C/c1ccc(F)cc1)N1CCN(S(=O)(=O)c2ccc(Br)cc2)CC1
IC50 [1]: 0.00343 µM (active)

O=C(Cc1ccsc1-c1ccccc1)NO
IC50 (Leucine aminopeptidase): 43.4 µM (active) | IC50 [2]: 1.4 µM (active) | IC50 (Aminopeptidase N): 10.4 µM (active)

Nc1cc(S(=O)(=O)O)cc([N+](=O)[O-])c1O
EC50 [3]: > 300 µM (not active) | IC50 [4]: 3.2 µM (active) | IC50 [5]: 4.99 µM (active) | EC50 [6]: > 300 µM (not active) | AC50 (Caspase-9): > 70 µM (inactive) | AC50 (Caspase-6): 3.5 µM (active) | IC50 [7]: 3.97 µM (active) | IC50 [8]: > 123 µM (inactive) | AC50 [9]: 16.3 µM (active)

— ChEMBL document CHEMBL1201862, “PubChem BioAssay data set” (2004)
